What was measured:
[1] = molecular target: DPP-4 (dipeptidyl peptidase 4) (Homo sapiens, UniProt P27487); assay: Stability of compound assessed as DPP-4 (unknown origin)-mediated drug degradation by measuring half life measured for 10 mins by RP-HPLC analysis; type: ADME
[2] = molecular target: T1, Tyrosine-protein phosphatase non-receptor type 1 (Homo sapiens, UniProt P18031); assay: Binding affinity to PTPN1 (unknown origin) assessed as equilibrium dissociation constant (Kd) by Bio-Layer Interferometric analysis
T1 sequence (P18031 whole entry): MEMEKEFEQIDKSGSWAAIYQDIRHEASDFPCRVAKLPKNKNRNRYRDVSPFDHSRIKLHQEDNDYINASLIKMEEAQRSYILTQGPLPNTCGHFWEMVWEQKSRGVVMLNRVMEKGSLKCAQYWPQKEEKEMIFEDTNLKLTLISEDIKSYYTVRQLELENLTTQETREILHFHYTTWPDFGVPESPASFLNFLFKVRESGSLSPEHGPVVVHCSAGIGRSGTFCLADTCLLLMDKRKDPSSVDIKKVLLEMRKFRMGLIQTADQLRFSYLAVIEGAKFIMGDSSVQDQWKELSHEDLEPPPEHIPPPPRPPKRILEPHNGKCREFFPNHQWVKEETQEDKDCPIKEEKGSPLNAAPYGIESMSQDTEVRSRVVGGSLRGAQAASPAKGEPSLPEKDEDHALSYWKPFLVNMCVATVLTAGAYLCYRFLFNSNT

[3] = Stability in rat plasma assessed as half life; type: ADME, cell-free
[4] = molecular target: T2, Tyrosine-protein phosphatase non-receptor type 1 (Homo sapiens) (UniProt P18031); assay: Binding affinity to PTPN1 (unknown origin) assessed as dissociation rate constant (Koff) by Bio-Layer Interferometric analysis
T2 sequence (whole entry): T1 sequence (P18031 whole entry)

[5] = molecular target: T2, Tyrosine-protein phosphatase non-receptor type 1 (Homo sapiens); assay: Binding affinity to PTPN1 (unknown origin) assessed as association rate constant (Kon) by Bio-Layer Interferometric analysis
chymotrypsin = assay: Proteolytic stability of compound assessed as chymotrypsin (unknown origin)-mediated drug degradation at 0.6 mM by measuring half life measured after 24 hrs by RP-HPLC analysis; type: ADME; conditions: human
[6] = molecular target: T2, Tyrosine-protein phosphatase non-receptor type 1 (Homo sapiens); assay: Binding affinity to PTPN1 (unknown origin) assessed as observed […] rate constant (Kobs) by Bio-Layer Interferometric analysis
pepsin = assay: Proteolytic stability of compound assessed as pepsin (unknown origin)-mediated drug degradation at 40 mM by measuring half life measured after 24 hrs by RP-HPLC analysis; type: ADME; conditions: human
proteinase K = assay: Proteolytic stability of compound assessed as proteinase K (unknown origin)-mediated drug degradation at 0.4 mM by measuring half life measured after 24 hrs by RP-HPLC analysis; type: ADME; conditions: human
[7] = molecular target: T1, Tyrosine-protein phosphatase non-receptor type 1; assay: Inhibition of recombinant human PTPN1 using p-nitrophenyl phosphate as substrate by spectrophotometric analysis
Mus musculus [8] = assay: Anti-diabetic activity in male Kunming mouse assessed as reduction in area under the curve of blood glucose at 0.2 microM/Kg, sc measured for 0 to 120 mins by GTT; type: functional; design: scale not given: the % may be the effect or the level left; conditions: time 0-120 min, at 0.2 µmol/kg
Mus musculus [9] = assay: Anti-diabetic activity in male Kunming mouse assessed as reduction in area under the curve of blood glucose at 0.05 microM/Kg, sc measured for 0 to 120 mins by GTT; type: functional; design: scale not given: the % may be the effect or the level left; conditions: time 0-120 min, at 0.05 µmol/kg
[10] = Toxicity in male Kunming mouse assessed as reduction in body weight at 0.2 microM/Kg, sc administered daily for 7 days and measured on day 1; type: organism-based; conditions: in vivo, 24 h, time 1 day
Mus musculus [11] = assay: Anti-diabetic activity in male Kunming mouse assessed as reduction in area under the curve of blood glucose at 0.1 microM/Kg, sc measured for 0 to 120 mins by GTT; type: functional; design: scale not given: the % may be the effect or the level left; conditions: time 0-120 min, at 0.1 µmol/kg
Mus musculus [12] = assay: Anti-diabetic activity in male Kunming mouse assessed as reduction in area under the curve of blood glucose at 20 mg/kg, po measured for 0 to 180 mins by GTT; type: functional; design: scale not given: the % may be the effect or the level left; conditions: time 0-180 min
[13] = Toxicity in male Kunming mouse assessed as change in body weight at 0.2 microM/Kg, sc administered daily for 7 days and measured from day 2 to 7; type: organism-based; conditions: in vivo, 144 h, time 6 day
Mus musculus [14] = assay: Anti-diabetic activity in male Kunming mouse assessed as reduction in area under the curve of blood glucose at 40 mg/kg, po measured for 0 to 180 mins by GTT; type: functional; design: scale not given: the % may be the effect or the level left; conditions: time 0-180 min
Mus musculus [15] = assay: Anti-diabetic activity in male Kunming mouse assessed as reduction in area under the curve of blood glucose at 10 mg/kg, po measured for 0 to 180 mins by GTT; type: functional; design: scale not given: the % may be the effect or the level left; conditions: time 0-180 min

Chain of DPP-4 (dipeptidyl peptidase 4) (P27487 whole entry): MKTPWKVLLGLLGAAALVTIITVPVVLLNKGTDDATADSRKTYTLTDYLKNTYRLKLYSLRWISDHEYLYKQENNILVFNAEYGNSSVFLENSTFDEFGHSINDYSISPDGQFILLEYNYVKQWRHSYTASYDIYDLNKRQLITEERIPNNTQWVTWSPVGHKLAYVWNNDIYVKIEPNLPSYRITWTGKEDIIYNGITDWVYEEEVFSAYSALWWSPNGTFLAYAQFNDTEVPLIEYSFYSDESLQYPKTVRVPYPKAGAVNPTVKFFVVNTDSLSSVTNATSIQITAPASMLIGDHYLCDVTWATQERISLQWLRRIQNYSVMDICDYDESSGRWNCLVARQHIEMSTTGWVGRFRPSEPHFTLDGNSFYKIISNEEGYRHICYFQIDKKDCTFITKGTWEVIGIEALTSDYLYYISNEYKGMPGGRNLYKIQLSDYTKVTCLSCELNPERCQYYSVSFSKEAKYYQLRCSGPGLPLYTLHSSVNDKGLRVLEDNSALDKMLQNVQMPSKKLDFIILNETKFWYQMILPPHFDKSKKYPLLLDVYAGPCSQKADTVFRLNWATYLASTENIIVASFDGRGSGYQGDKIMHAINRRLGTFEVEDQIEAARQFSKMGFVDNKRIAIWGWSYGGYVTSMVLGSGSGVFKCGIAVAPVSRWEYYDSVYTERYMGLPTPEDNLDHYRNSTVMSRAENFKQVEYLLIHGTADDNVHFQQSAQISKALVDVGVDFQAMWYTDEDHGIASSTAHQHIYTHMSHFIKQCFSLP

SMILES	half-life [1]	Kd [2]	half-life [3]	K [4]	K [5]	half-life at 600 µM (chymotrypsin)	Kobs [6]	half-life at 40000 µM (pepsin)	half-life at 400 µM (proteinase K)	IC50 [7]	Activity (Mus musculus [8])	Activity (Mus musculus [9])	Activity [10]	Activity (Mus musculus [11])	Activity (Mus musculus [12])	Activity [13]	Activity (Mus musculus [14])	Activity (Mus musculus [15])
CCCCCCCCCCCCCCCC(=O)N[C@H](C(=O)N[C@@H](C)C(=O)N[C@@H](CCC(N)=O)C(=O)N[C@@H](CCC(=O)O)C(=O)N[C@@H](CC(C)C)C(=O)N[C@@H](CCCNC(=N)N)C(=O)N[C@@H](CCCNC(=N)N)C(=O)N[C@H](C(=O)NCC(=O)N[C@@H](CC(=O)O)C(=O)N[C@@H](CCC(=O)O)C(=O)N[C@@H](Cc1ccccc1)C(=O)O)[C@@H](C)CC)[C@@H](C)CC	3.68 h	2820 nM	10.6 h	6.65 10^-3/s	2.35 10^2/Ms	0.556 h	7.3 10^-3No_unit	2.7 h	2.65 h	–	–	–	–	–	–	–	–	–
CCCCCCCCCCCCCCCC(=O)N[C@H](C(=O)N[C@H](CCCCN)C(=O)N[C@@H](CCC(N)=O)C(=O)N[C@@H](CCC(=O)O)C(=O)N[C@@H](CC(C)C)C(=O)N[C@@H](CCCNC(=N)N)C(=O)N[C@@H](CCCNC(=N)N)C(=O)N[C@H](C(=O)NCC(=O)N[C@@H](CC(=O)O)C(=O)N[C@@H](CCC(=O)O)C(=O)N[C@@H](Cc1ccccc1)C(=O)O)[C@@H](C)CC)[C@@H](C)CC	–	–	–	–	–	–	–	–	–	2140 nM	–	–	–	–	–	–	–	–
CCCCCCCCCCCCCCCC(=O)N[C@H](C(=O)N[C@@H](C)C(=O)N[C@H](CCC(N)=O)C(=O)N[C@@H](CCC(=O)O)C(=O)N[C@@H](CC(C)C)C(=O)N[C@@H](CCCNC(=N)N)C(=O)N[C@@H](CCCNC(=N)N)C(=O)N[C@H](C(=O)NCC(=O)N[C@@H](CC(=O)O)C(=O)N[C@@H](CCC(=O)O)C(=O)N[C@@H](Cc1ccccc1)C(=O)O)[C@@H](C)CC)[C@@H](C)CC	1.42 h	–	–	–	–	1.86 h	–	1.13 h	3.21 h	855 nM	–	–	–	–	–	–	–	–
CCCCCCCCCCCCCCCC(=O)N[C@H](C(=O)N[C@H](C)C(=O)N[C@@H](CCC(N)=O)C(=O)N[C@@H](CCC(=O)O)C(=O)N[C@@H](CC(C)C)C(=O)N[C@@H](CCCNC(=N)N)C(=O)N[C@@H](CCCNC(=N)N)C(=O)N[C@H](C(=O)NCC(=O)N[C@@H](CC(=O)O)C(=O)N[C@@H](CCC(=O)O)C(=O)N[C@@H](Cc1ccccc1)C(=O)O)[C@@H](C)CC)[C@@H](C)CC	3.61 h	167 nM	102 h	1.46 10^-4/s	3.27 10^2/Ms	1.72 h	6.69 10^-3No_unit	2.42 h	15 h	395 nM	–	–	–	–	–	–	–	–
CCCCCCCCCCCCCCCC(=O)N[C@H](C(=O)N[C@@H](C(=O)N[C@@H](CCC(N)=O)C(=O)N[C@@H](CCC(=O)O)C(=O)N[C@@H](CC(C)C)C(=O)N[C@@H](CCCNC(=N)N)C(=O)N[C@@H](CCCNC(=N)N)C(=O)N[C@H](C(=O)NCC(=O)N[C@@H](CC(=O)O)C(=O)N[C@@H](CCC(=O)O)C(=O)N[C@@H](Cc1ccccc1)C(=O)O)[C@@H](C)CC)C(C)C)[C@@H](C)CC	7.12 h	2110 nM	70.7 h	5.85 10^-3/s	2.78 10^2/Ms	0.163 h	6.14 10^-3No_unit	1.17 h	12.3 h	805 nM	–	–	–	–	–	–	–	–
CCCCCCCCCCCCCCCC(=O)N[C@H](C(=O)N[C@H](CCC(N)=O)C(=O)N[C@@H](CCC(N)=O)C(=O)N[C@@H](CCC(=O)O)C(=O)N[C@@H](CC(C)C)C(=O)N[C@@H](CCCNC(=N)N)C(=O)N[C@@H](CCCNC(=N)N)C(=O)N[C@H](C(=O)NCC(=O)N[C@@H](CC(=O)O)C(=O)N[C@@H](CCC(=O)O)C(=O)N[C@@H](Cc1ccccc1)C(=O)O)[C@@H](C)CC)[C@@H](C)CC	–	–	–	–	–	–	–	–	–	4210 nM	–	–	–	–	–	–	–	–
CCCCCCCCCCCCCCCC(=O)N[C@H](C(=O)N[C@H](Cc1ccc(O)cc1)C(=O)N[C@@H](CCC(N)=O)C(=O)N[C@@H](CCC(=O)O)C(=O)N[C@@H](CC(C)C)C(=O)N[C@@H](CCCNC(=N)N)C(=O)N[C@@H](CCCNC(=N)N)C(=O)N[C@H](C(=O)NCC(=O)N[C@@H](CC(=O)O)C(=O)N[C@@H](CCC(=O)O)C(=O)N[C@@H](Cc1ccccc1)C(=O)O)[C@@H](C)CC)[C@@H](C)CC	13.6 h	447 nM	98.6 h	7.35 10^-5/s	4.4 10^2/Ms	0.115 h	8.87 10^-3No_unit	1.78 h	8.66 h	461 nM	–	–	–	–	–	–	–	–

Now from value to compound, other results behind:

half-life [1]	Kd [2]	half-life [3]	K [4]	K [5]	half-life at 600 µM (chymotrypsin)	Kobs [6]	half-life at 40000 µM (pepsin)	half-life at 400 µM (proteinase K)	IC50 [7]	SMILES	Activity (Mus musculus [8])	Activity (Mus musculus [9])	Activity [10]	Activity (Mus musculus [11])	Activity (Mus musculus [12])	Activity [13]	Activity (Mus musculus [14])	Activity (Mus musculus [15])
–	–	–	–	–	–	–	–	–	4410 nM	CCCCCCCCCCCCCCCC(=O)N[C@H](C(=O)N[C@H](CO)C(=O)N[C@@H](CCC(N)=O)C(=O)N[C@@H](CCC(=O)O)C(=O)N[C@@H](CC(C)C)C(=O)N[C@@H](CCCNC(=N)N)C(=O)N[C@@H](CCCNC(=N)N)C(=O)N[C@H](C(=O)NCC(=O)N[C@@H](CC(=O)O)C(=O)N[C@@H](CCC(=O)O)C(=O)N[C@@H](Cc1ccccc1)C(=O)O)[C@@H](C)CC)[C@@H](C)CC	–	–	–	–	–	–	–	–
–	–	–	–	–	–	–	–	–	1640 nM	CCCCCCCCCCCCCCCC(=O)N[C@H](C(=O)N[C@@H](C)C(=O)N[C@@H](CCC(N)=O)C(=O)N[C@@H](CCC(=O)O)C(=O)N[C@@H](CC(C)C)C(=O)N[C@@H](CCCNC(=N)N)C(=O)N[C@H](CCCNC(=N)N)C(=O)N[C@H](C(=O)NCC(=O)N[C@@H](CC(=O)O)C(=O)N[C@@H](CCC(=O)O)C(=O)N[C@@H](Cc1ccccc1)C(=O)O)[C@@H](C)CC)[C@@H](C)CC	–	–	–	–	–	–	–	–
2.87 h	15.1 nM	101 h	2.5 10^-5/s	1.65 10^3/Ms	0.712 h	3.31 10^-2No_unit	1.42 h	8.87 h	294 nM	CCCCCCCCCCCCCCCC(=O)N[C@H](C(=O)N[C@@H](C)C(=O)N[C@@H](CCC(N)=O)C(=O)N[C@@H](CCC(=O)O)C(=O)N[C@@H](CC(C)C)C(=O)N[C@@H](CCCNC(=N)N)C(=O)N[C@@H](CCCNC(=N)N)C(=O)N[C@@H](C(=O)NCC(=O)N[C@@H](CC(=O)O)C(=O)N[C@@H](CCC(=O)O)C(=O)N[C@@H](Cc1ccccc1)C(=O)O)[C@@H](C)CC)[C@@H](C)CC	26.2%	7.1%	~ 1 g	15.6%	8%	Non-toxic	15.4%	4.6%
–	–	–	–	–	2.9 h	–	1.14 h	3.79 h	871 nM	CCCCCCCCCCCCCCCC(=O)N[C@H](C(=O)N[C@H](Cc1cnc[nH]1)C(=O)N[C@@H](CCC(N)=O)C(=O)N[C@@H](CCC(=O)O)C(=O)N[C@@H](CC(C)C)C(=O)N[C@@H](CCCNC(=N)N)C(=O)N[C@@H](CCCNC(=N)N)C(=O)N[C@H](C(=O)NCC(=O)N[C@@H](CC(=O)O)C(=O)N[C@@H](CCC(=O)O)C(=O)N[C@@H](Cc1ccccc1)C(=O)O)[C@@H](C)CC)[C@@H](C)CC	–	–	–	–	–	–	–	–

— ChEMBL document CHEMBL6109070, “Fatty acid conjugated BimBH3 analogues with d‑amino acid substitution as PTPN1 inhibitors with enhanced activity, biostability and orally available potency for the treatment of diabetes” (Bioorg Med Chem, 2025)
